Data published in patent publication US5922709A, “Antifungal composition” (Banyu Pharmaceutical Co., Ltd., priority 1995, dated 1999).
In brackets after ≈: the same amount, converted by molar mass.

Assays:
Assay type in all cases: cell-based
[1] = system: Candida albicans IFO 1385; test: Minimum inhibitory concentration (agar dilution method) of itraconazole in the presence and absence of BE-31405, Candida albicans IFO 1385; conditions: for MIC of intraconazole: 37° C., 2 days
Protocol: (§1) Now, the minimum inhibitory concentrations (MIC, by an agar dilution method) of itraconazole against Candida albicans IFO 1270, IFO 1385 and ATCC90028 in the presence and absence of BE-31405, are shown in Tables 3, 4 and 5, respectively. As the agar medium for the measurement of MIC, a culture medium having 1% of glucose and 1.2% of agar added to a yeast nitrogen base, manufactured by Difico Co., was used, and after inoculation of the strain solution, culturing was carried out at 37° C. for 2 days, whereupon the concentration at which no growth of the strain was observed, was judged to be MIC.

[2] = system: Candida albicans ATCC 90028; test: Minimum inhibitory concentration (agar dilution method) of itraconazole in the presence and absence of BE-31405, Candida albicans ATCC 90028; conditions: for MIC of intraconazole: 37° C., 2 days
Protocol: as §1

[3] = system: Candida albicans IFO 1385; test: Minimum inhibitory concentration (agar dilution method) of miconazole in the presence or absence of BE-31405, Candida albicans IFO 1385; conditions: for MIC of miconazole: yeast morphology agar, 37° C., 2 days
[4] = system: Candida albicans IFO 1270; test: Minimum inhibitory concentration (agar dilution method) of itraconazole in the presence and absence of BE-31405, Candida albicans IFO 1270; conditions: for MIC of intraconazole: 37° C., 2 days
Protocol: as §1

[5] = BE-31405 0.0 μg/ml (absence), yeast nitrogen base, 1% glucose, 1.2% agar
[6] = itraconazole combined with BE-31405, IFO 1385 (Table 4)
[7] = with BE-31405 0.025 μg/ml, yeast nitrogen base agar
[8] = with BE-31405 0.05 μg/ml, yeast nitrogen base agar
[9] = with BE-31405 0.1 μg/ml, yeast nitrogen base agar
[10] = with BE-31405 0.39 μg/ml, yeast nitrogen base agar
[11] = itraconazole combined with BE-31405, ATCC 90028 (Table 5)
[12] = itraconazole combined with BE-31405, IFO 1270 (Table 3)

CC(=O)OC1C2OC3(OCC45CC6C(C)CCC6C6(C=O)CC4C=C(C(C)C)C65C(=O)O)OC2OC1C3O (stereo not drawn) [BE-31405] showed an MIC ([1]; Candida albicans, IFO1385, 48 h, BE31405 alone under this test condition (Table 4)) of 1.56 µg/mL (≈ 2.93 µM), an MIC ([2]; Candida albicans, ATCC90028, 48 h, BE31405 alone under this test condition (Table 5)) of 1.56 µg/mL (≈ 2.93 µM) and an MIC ([3]; Candida albicans, IFO1385, 48 h, BE31405 alone under this test condition (Table 2)) of 1.56 µg/mL (≈ 2.93 µM). For the same compound, the MIC ([4]; Candida albicans, IFO1270, 48 h, BE31405 alone under this test condition (Table 3)) was 0.78 µg/mL (≈ 1.46 µM).

In the case of CCC(C)n1ncn(-c2ccc(N3CCN(c4ccc(OCC5COC(Cn6cncn6)(c6ccc(Cl)cc6Cl)O5)cc4)CC3)cc2)c1=O (stereo not drawn) [itraconazole], the MIC of intraconazole [1, 5] was over 100 µg/mL, the “effect of combined use” value [1, 6] was “strong synergistic effects” and the “fractional inhibitory concentration index” value [1, 6] was “at most 0.2”. The “antifungal activities of itraconazole in the presence of a low concentration of BE-31405” value (“antifungal activities of itraconazole” for short) ([1]; low concentration of BE-31405, IFO 1385 (Table 4)) was “substantially enhanced”, the MIC of intraconazole [1, 7] was 1.56 µg/mL and the MIC of intraconazole [1, 8] was 0.2 µg/mL. It also gave an MIC of intraconazole [1, 9] of 0.1 µg/mL, an MIC of intraconazole [1, 10] of 0.05 µg/mL and an MIC of intraconazole [2, 5] of over 100 µg/mL. For the same compound, the “effect of combined use” value [2, 11] was “strong synergistic effects”, the “fractional inhibitory concentration index” value [2, 11] was “at most 0.2” and the “antifungal activities of itraconazole” value ([2]; low concentration of BE-31405, ATCC 90028 (Table 5)) was “substantially enhanced”. The MIC of intraconazole [2, 7] was 1.56 µg/mL, the MIC of intraconazole [2, 8] was 0.2 µg/mL and the MIC of intraconazole [2, 9] was 0.2 µg/mL. The MIC of intraconazole [2, 10] was 0.1 µg/mL, the MIC of intraconazole [4, 5] was over 100 µg/mL and the “effect of combined use” value [4, 12] was “strong synergistic effects”. The “fractional inhibitory concentration index” value [4, 12] was “at most 0.2”, the “antifungal activities of itraconazole” value ([4]; low concentration of BE-31405, IFO 1270 (Table 3)) was “substantially enhanced” and the MIC of intraconazole ([4]; with BE-31405 0.006 μg/ml, yeast nitrogen base agar) was 0.05 µg/mL. The MIC of intraconazole [4, 7] was 0.013 µg/mL, the MIC of intraconazole [4, 9] was 0.013 µg/mL and the MIC of intraconazole [4, 10] was 0.013 µg/mL.

With Clc1ccc(COC(Cn2ccnc2)c2ccc(Cl)cc2Cl)c(Cl)c1 (stereo not drawn) [miconazole] the MIC of miconazole ([3]; BE-31405 0.0 μg/ml (absence)) was 12.5 µg/mL, the “antifungal activities of miconazole in the presence of a low concentration of BE-31405” value ([3]; in the presence of a low concentration of BE-31405) was “substantially enhanced” and the “fractional inhibitory concentration index” value ([3]; miconazole combined with BE-31405) was 0.2. For the same compound, the “effect of combined use” value ([3]; miconazole combined with BE-31405, judged from fractional inhibitory concentration index) was “synergistic effect”, the MIC of miconazole ([3]; with BE-31405 0.1 μg/ml) was 1.56 µg/mL and the MIC of miconazole ([3]; with BE-31405 0.2 μg/ml) was 0.78 µg/mL. It also gave an MIC of miconazole ([3]; with BE-31405 0.39 μg/ml) of 0.39 µg/mL and an MIC of miconazole ([3]; with BE-31405 0.78 μg/ml) of 0.05 µg/mL.
